Experimental data as given in ChEMBL document CHEMBL1201862, “PubChem BioAssay data set” (2004).
The source made the active and inactive calls.

Experiments:
[1] = Luminescence Cell-Based Dose Response HTS to Identify Inhibitors of Luciferase Translation or Activity in H4-C Neuroglioblastoma Cells. [Related pubchem assays: 1813 (Primary HTS), 1827 (Project Summary)]; assay type: functional
[2] = Luminescence Cell-Based Dose Response HTS to Identify Activators of Luciferase Translation or Activity in H4-C Neuroglioblastoma Cells. [Related pubchem assays: 1829 (Project Summary), 1814 (Primary HTS)]; assay type: functional
[3] = Luminescence Cell-Based Dose Retest to Confirm Activators of 5'UTR Stem-Loop Driven Alpha-Synuclein mRNA Translation in H4 Neuroglioblastoma Cells. [Related pubchem assays (depositor defined):AID1813, AID1829]; assay type: functional
[4] = Luminescence Cell-Based Dose Response HTS to Identify Activators of 5'UTR Stem-Loop Driven Prion Protein mRNA Translation in H4-C Neuroglioblastoma Cells. [Related pubchem assays: 1829 (Project Summary), 1814 (Primary HTS)]; assay type: functional
[5] = Luminescence Cell-Based Dose HTS Response to Identify Inhibitors of 5'UTR Stem-Loop Driven Prion Protein mRNA Translation in H4-C Neuroglioblastoma Cells. [Related pubchem assays (depositor defined):AID1814, AID1827]; assay type: functional
[6] = Luminescence Cell-Based Dose Confirmation HTS to Identify Inhibitors of 5'UTR Stem-Loop Driven Alpha-Synuclein mRNA Translation in H4 Neuroglioblastoma Cells. [Related pubchem assays: 1827 (Project Summary), 1813 (Primary HTS)]; assay type: functional
[7] = luciferase reporter signal suppression in cells – H4 neuroglioma cells, luminescence, dose response (AID 1990); assay type: functional, cell-based
[8] = Luminescence Cell-Based Dose Response HTS to Identify Inhibitors of 5'UTR Stem-Loop Driven Prion Protein mRNA Translation in H4 Neuroglioblastoma Cells. [Related pubchem assays: 1827 (Project Summary), 1813 (Primary HTS)]; assay type: functional
[9] = alpha-synuclein stem-loop luciferase translation blockers – H4 neuroglioma cells, luminescence, confirmation (AID 1988); assay type: functional, cell-based
[10] = target: T1, Intestinal-type alkaline phosphatase (Homo sapiens, UniProt P09923); assay: human intestinal alkaline phosphatase activators, dose response, biochemical, luminescence, uHTS hits (AID 463120); assay type: functional
T1 sequence (P09923 whole entry, the tested form may be a part): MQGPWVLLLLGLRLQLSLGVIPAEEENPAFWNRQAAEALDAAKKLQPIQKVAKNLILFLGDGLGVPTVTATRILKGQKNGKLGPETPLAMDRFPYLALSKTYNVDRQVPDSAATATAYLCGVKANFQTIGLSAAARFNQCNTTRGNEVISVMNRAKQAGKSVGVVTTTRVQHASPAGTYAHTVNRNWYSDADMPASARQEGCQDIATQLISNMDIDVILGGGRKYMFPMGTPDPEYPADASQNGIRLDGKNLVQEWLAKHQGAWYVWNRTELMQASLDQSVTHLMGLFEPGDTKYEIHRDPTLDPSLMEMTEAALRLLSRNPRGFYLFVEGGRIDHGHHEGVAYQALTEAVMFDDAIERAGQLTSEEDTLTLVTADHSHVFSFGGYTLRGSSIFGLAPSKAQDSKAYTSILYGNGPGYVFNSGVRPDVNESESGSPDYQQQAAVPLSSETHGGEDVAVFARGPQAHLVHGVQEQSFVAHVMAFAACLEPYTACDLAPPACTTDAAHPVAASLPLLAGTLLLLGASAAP

[11] = target: T2, RNA-binding protein pos-1 (Caenorhabditis elegans, UniProt G5EF15); assay: disruptors of C. elegans POS-1 RNA interaction – biochemical, fluorescence polarization, dose response (AID 1964);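 note: purified POS-1 fused to maltose binding protein made in E. coli; potency of compounds blocking POS-1 binding to fluorescent RNA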
T2 sequence (G5EF15 whole entry): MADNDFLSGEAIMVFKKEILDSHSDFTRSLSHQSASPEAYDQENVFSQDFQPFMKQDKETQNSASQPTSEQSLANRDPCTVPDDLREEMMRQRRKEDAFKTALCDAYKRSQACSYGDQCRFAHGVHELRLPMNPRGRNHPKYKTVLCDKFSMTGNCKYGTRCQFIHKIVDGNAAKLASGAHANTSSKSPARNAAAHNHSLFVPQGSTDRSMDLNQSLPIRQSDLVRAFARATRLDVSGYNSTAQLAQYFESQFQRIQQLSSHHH

[12] = target: T3, Zinc finger protein mex-5 (Caenorhabditis elegans, UniProt Q9XUB2); assay: potency of MEX-5 RNA-binding blockers – biochemical, C. elegans, fluorescence polarization, dose response (AID 1960)
T3 sequence (Q9XUB2 whole entry): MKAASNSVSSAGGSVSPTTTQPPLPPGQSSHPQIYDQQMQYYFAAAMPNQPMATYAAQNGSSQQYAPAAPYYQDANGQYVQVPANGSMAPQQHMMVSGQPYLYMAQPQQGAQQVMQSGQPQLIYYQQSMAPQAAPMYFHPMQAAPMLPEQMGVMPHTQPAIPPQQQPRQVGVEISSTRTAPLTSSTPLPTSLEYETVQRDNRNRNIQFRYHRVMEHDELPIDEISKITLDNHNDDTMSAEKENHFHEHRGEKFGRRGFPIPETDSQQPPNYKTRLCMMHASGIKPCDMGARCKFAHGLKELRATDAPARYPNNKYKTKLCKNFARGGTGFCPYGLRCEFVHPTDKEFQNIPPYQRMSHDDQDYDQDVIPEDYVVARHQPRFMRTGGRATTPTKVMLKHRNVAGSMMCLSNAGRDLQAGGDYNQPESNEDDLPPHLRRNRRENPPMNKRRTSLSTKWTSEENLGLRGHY

Large T antigen = Large T antigen (Simian virus 40, UniProt P03070); assay type: functional, Betapolyomavirus macacae;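 note: Confirmatory-stage PubChem screen for compounds that inhibit SV40 T antigen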
Chain of Large T antigen (P03070 whole entry): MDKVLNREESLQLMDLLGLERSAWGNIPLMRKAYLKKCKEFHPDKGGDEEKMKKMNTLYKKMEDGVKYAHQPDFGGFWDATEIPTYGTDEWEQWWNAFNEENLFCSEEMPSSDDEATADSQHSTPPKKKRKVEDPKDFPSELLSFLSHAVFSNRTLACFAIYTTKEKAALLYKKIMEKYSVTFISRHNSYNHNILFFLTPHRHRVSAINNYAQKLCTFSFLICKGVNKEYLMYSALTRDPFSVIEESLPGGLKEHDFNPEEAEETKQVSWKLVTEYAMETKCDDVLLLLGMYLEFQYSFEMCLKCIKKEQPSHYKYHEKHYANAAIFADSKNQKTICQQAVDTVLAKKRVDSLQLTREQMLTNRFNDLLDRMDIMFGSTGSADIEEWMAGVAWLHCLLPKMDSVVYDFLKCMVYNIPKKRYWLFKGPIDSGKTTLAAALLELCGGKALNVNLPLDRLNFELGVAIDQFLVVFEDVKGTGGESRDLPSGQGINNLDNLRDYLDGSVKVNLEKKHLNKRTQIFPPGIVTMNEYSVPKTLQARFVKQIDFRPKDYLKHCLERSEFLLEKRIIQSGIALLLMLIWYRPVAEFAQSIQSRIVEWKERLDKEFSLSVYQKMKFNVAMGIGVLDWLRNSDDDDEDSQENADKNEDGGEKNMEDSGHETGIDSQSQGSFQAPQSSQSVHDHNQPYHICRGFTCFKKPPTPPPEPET

[13] = target: T1, Intestinal-type alkaline phosphatase; assay: activation of human intestinal alkaline phosphatase – biochemical, dose response (AID 488873); assay type: functional
[14] = target: Intestinal-type alkaline phosphatase (Mus musculus, UniProt P24822); assay: mouse intestinal alkaline phosphatase activators, dose response, biochemical, luminescence, uHTS hits (AID 488783); assay type: functional
Chain of Intestinal-type alkaline phosphatase (Mus musculus, UniProt P24822) (P24822 whole entry): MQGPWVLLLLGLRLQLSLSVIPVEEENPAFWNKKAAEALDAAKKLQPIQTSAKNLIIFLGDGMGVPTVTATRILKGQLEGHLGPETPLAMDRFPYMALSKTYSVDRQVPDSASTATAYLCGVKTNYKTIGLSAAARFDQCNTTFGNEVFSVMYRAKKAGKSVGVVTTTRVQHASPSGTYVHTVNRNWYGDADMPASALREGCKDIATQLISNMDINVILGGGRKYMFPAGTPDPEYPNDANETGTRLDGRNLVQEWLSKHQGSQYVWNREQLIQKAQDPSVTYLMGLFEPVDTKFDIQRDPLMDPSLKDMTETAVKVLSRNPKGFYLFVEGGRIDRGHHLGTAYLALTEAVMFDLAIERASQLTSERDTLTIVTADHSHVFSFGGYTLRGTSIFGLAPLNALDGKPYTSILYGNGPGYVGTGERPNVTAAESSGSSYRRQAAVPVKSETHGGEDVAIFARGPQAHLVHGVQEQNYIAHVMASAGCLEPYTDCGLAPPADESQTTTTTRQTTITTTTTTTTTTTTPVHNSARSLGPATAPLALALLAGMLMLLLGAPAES

[15] = target: T4, Alkaline phosphatase, tissue-nonspecific isozyme (Homo sapiens, UniProt P05186); assay: activation of tissue-nonspecific alkaline phosphatase – biochemical, TNAP isozyme, mouse IAP uHTS hits, selectivity assay for mouse IAP activator project, dose response (AID 488880); assay type: functional
T4 sequence (P05186 whole entry): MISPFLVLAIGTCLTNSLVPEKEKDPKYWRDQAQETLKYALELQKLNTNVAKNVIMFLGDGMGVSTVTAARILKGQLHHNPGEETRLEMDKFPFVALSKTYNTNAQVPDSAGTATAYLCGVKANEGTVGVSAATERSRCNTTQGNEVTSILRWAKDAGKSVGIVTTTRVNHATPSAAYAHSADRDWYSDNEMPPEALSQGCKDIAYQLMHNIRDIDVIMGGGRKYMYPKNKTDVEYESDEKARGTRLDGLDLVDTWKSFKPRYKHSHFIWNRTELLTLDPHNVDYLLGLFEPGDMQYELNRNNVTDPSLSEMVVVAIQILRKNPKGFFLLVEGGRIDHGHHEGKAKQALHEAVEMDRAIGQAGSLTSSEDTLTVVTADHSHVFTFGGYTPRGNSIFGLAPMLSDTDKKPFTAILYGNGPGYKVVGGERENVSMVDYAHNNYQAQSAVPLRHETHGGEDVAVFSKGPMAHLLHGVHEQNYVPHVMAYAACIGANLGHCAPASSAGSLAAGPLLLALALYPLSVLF

SUMO-activating enzyme [16] = target: T5, SUMO-activating enzyme (Homo sapiens, UniProt Q9UBT2); assay: blockers of UBC9-mediated SUMO conjugation – biochemical, AlphaScreen, SUMOylation inhibitor project, confirmation (AID 2018); assay type: functional
T5 sequence (Q9UBE0 whole entry): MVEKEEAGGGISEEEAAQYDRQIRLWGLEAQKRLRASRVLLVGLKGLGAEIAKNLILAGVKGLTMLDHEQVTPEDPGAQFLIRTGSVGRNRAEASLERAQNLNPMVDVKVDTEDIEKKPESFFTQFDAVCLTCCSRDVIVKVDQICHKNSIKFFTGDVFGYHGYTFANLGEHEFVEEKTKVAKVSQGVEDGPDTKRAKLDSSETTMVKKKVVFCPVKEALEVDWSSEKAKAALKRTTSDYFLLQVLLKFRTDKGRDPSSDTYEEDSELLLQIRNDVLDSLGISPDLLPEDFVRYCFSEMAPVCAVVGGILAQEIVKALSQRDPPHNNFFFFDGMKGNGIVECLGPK
T5 sequence (Q9UBT2 whole entry): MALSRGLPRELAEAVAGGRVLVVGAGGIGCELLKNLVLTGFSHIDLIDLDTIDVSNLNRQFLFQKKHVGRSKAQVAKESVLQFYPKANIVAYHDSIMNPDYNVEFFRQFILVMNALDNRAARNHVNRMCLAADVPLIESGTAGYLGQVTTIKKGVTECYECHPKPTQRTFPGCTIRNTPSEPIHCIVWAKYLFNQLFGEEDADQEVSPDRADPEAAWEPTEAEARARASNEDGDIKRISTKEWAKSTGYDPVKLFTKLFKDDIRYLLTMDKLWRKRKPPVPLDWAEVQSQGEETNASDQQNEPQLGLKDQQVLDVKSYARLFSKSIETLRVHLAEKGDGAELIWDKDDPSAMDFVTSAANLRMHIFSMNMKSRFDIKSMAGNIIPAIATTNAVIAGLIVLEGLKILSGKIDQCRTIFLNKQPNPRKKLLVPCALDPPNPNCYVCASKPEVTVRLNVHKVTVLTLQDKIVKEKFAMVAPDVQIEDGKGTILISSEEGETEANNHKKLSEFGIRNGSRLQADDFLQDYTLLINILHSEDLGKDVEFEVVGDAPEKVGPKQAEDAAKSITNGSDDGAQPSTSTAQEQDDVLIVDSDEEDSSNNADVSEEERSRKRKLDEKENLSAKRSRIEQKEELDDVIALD

Estrogen receptor [17] = target: T6, Estrogen receptor (Homo sapiens, UniProt P03372);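 note: potency for inhibiting coactivator peptide recruitment to the receptor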
T6 sequence (P03372 whole entry): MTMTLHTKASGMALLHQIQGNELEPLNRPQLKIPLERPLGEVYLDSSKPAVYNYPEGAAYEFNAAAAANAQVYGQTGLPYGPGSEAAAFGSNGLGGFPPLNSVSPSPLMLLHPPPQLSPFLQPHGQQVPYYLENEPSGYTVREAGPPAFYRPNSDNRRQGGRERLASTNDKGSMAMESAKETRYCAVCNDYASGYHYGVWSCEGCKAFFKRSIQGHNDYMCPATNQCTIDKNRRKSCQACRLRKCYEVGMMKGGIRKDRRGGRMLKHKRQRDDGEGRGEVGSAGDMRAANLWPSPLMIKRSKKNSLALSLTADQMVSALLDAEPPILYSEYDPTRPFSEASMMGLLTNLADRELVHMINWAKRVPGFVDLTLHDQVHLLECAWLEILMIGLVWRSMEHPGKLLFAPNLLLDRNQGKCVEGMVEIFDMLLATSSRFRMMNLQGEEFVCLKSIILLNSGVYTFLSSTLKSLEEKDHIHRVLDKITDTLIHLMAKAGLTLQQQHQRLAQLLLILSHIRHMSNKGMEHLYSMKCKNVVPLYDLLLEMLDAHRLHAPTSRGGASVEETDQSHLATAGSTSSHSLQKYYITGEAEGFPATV

SUMO-activating enzyme [18] = target: T5, SUMO-activating enzyme; assay: blockers of SAE1/SAE2–UBC9 SUMO transfer – biochemical, HTRF, uHTS, primary screen (AID 2006); assay type: protein-complex assay
Estrogen receptor [19] = target: T6, Estrogen receptor; assay: ERα coactivator recruitment enhancers – biochemical, TR-FRET, ERα LBD, dose response (AID 737)
[20] = target: T7, G-protein coupled receptor 55 (Homo sapiens, UniProt Q9Y2T6); assay: selective activators of receptor GPR55 – imaging, U2OS cells, beta-arrestin-GFP redistribution, primary screen (AID 1961); assay type: functional
T7 sequence (Q9Y2T6 whole entry): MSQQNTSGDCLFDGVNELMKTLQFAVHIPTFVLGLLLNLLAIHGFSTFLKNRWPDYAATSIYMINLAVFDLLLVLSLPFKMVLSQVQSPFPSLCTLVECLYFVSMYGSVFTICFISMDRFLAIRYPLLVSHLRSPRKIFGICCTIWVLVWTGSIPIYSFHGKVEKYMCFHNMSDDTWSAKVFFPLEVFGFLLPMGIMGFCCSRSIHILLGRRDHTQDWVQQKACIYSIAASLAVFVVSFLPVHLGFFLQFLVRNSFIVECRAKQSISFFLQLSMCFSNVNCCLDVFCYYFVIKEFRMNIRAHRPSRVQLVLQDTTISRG

Cannabinoid receptor 2 [21] = target: T8, Cannabinoid receptor 2 (Homo sapiens, UniProt P34972); assay: SAR analysis of antagonists of the Cannabinoid Receptor 2 using an Image-Based Assay - Set 2. [Related pubchem assays (depositor defined):AID1961, AID1965]; assay type: functional
T8 sequence (P34972 whole entry): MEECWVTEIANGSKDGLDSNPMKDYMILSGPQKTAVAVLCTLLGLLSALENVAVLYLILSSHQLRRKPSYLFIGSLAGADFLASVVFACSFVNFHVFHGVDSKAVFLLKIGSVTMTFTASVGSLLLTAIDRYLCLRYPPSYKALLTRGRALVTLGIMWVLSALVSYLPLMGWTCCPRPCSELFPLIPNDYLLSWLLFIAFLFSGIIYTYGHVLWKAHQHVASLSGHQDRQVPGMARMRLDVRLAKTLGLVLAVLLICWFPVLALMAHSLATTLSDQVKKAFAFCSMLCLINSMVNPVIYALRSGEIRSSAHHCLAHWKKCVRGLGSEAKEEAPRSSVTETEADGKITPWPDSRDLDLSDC

Cannabinoid receptor 2 [22] = target: T8, Cannabinoid receptor 2; assay: SAR analysis of agonists of the Cannabinoid Receptor 2 using an Image-Based Assay - Set 2. [Related pubchem assays (depositor defined):AID1961, AID1965]; assay type: functional
[23] = target: T7, G-protein coupled receptor 55; assay: SAR analysis of selective Agonists of GPR55 using an Image-Based Assay. [Related pubchem assays (depositor defined):AID1961, AID1965]; assay type: functional
Cannabinoid receptor 1 = Cannabinoid receptor 1 (Homo sapiens, UniProt P21554); assay: SAR analysis of antagonists of the Cannabinoid Receptor 1 using an Image-Based Assay. [Related pubchem assays (depositor defined):AID1961, AID1965]; assay type: functional
Mu-type opioid receptor [24] = target: T9, Mu-type opioid receptor (Homo sapiens, UniProt P35372); assay: SAR Analysis of Antagonists of the MOR Receptor using an Image-Based Assay - Set 2. [Related pubchem assays (depositor defined):AID1777, AID1785, AID1786, AID1966, AID2133, AID2136, AID2284, AID2285, AID2420]; assay type: functional
T9 sequence (P35372 whole entry): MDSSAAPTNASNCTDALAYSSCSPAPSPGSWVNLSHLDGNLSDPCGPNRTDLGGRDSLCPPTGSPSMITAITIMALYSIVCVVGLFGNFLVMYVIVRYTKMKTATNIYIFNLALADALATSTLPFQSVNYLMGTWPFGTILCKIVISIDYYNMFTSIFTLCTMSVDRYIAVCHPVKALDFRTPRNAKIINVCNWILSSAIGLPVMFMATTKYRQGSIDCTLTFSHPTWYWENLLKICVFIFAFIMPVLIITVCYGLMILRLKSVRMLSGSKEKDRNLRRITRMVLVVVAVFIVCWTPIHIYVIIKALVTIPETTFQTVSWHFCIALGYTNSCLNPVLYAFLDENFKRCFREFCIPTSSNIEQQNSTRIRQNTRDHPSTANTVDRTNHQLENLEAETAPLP

[25] = target: T10, Kappa-type opioid receptor (Homo sapiens, UniProt P41145); assay: SAR analysis of Antagonists of the Kappa Opioid Receptor (KOR) using an Image-Based Assay - Set 2. [Related pubchem assays (depositor defined):AID1777, AID1785, AID1786, AID1966, AID2133, AID2136, AID2284, AID2285, AID2348]; assay type: functional
T10 sequence (P41145 whole entry): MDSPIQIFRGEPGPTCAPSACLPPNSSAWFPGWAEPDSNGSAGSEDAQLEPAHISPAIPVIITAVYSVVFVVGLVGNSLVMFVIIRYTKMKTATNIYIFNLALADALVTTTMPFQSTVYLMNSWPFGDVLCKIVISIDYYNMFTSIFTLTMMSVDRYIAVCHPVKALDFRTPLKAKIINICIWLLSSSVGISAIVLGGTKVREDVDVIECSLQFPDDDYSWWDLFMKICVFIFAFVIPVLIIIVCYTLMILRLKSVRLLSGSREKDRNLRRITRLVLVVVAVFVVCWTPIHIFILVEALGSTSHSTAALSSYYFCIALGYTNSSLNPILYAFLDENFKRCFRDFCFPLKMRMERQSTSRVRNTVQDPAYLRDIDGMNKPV

Mu-type opioid receptor [26] = target: T9, Mu-type opioid receptor; assay: SAR Analysis of Agonists of the MOR Receptor using an Image-Based Assay - Set 2. [Related pubchem assays (depositor defined):AID1777, AID1785, AID1786, AID1966, AID2133, AID2136, AID2284, AID2285, AID2352]; assay type: functional
[27] = target: T10, Kappa-type opioid receptor; assay: SAR analysis of small molecule agonists of the kappa opioid receptor via a luminescent beta-arrestin assay - Set 2. [Related pubchem assays (depositor defined):AID1777, AID1785, AID1786, AID1966, AID2133, AID2136, AID2284, AID449737]; assay type: functional
[28] = target: T11, Delta-type opioid receptor (Homo sapiens, UniProt P41143); assay: SAR Analysis of Agonists of the DOR Receptor using an Image-Based Assay - Set 2. [Related pubchem assays (depositor defined):AID1777, AID1785, AID1786, AID1966, AID2133, AID2136, AID2284, AID2285, AID2370]; assay type: functional
T11 sequence (P41143 whole entry): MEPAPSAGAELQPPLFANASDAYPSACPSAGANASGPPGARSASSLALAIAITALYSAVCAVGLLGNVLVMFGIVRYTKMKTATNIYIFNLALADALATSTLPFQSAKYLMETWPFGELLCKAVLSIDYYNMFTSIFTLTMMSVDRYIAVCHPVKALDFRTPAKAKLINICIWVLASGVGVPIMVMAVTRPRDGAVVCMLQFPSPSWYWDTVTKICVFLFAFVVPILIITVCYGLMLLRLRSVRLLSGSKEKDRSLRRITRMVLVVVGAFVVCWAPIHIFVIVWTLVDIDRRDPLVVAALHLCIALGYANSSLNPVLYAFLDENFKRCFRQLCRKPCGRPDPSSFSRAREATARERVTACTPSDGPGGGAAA

[29] = target: T11, Delta-type opioid receptor; assay: SAR Analysis of Antagonists of the DOR Receptor using an Image-Based Assay - Set 2. [Related pubchem assays (depositor defined):AID1777, AID1785, AID1786, AID1966, AID2133, AID2136, AID2284, AID2285, AID2357]; assay type: functional
[30] = target: T10, Kappa-type opioid receptor; assay: SAR analysis of Agonists of the Kappa Opioid Receptor (KOR) using an Image-Based Assay - Set 2. [Related pubchem assays (depositor defined):AID1777, AID1786, AID1966, AID2133, AID2136, AID2284, AID2285, AID2359]; assay type: functional
[31] = target: Voltage-dependent T-type calcium channel subunit alpha-1H (Homo sapiens, UniProt O95180); assay: human CACNA1H calcium influx blockade – cell-based, synthetic library set 2, HEK293 HH8, Fluo-4, SAR follow-up (AID 493023); assay type: functional

Compound: CC[n+]1c(/C=C/C=C/c2ccc(N(C)C)cc2)sc2ccccc21
- EC50 [1]: 2.69 µM (active)
- EC50 [2]: 2.69 µM (inconclusive)
- EC50 [3]: 26.3 µM (inconclusive)
- EC50 [4]: 1.54 µM (inconclusive)
- EC50 [5]: 1.54 µM (active)
- EC50 [6]: 26.3 µM (active)

Compound: N#CCN1C(=S)N=C(Nc2cccc(Cl)c2)C12CCCCC2
- EC50 [7]: > 120 µM (not active)
- EC50 [8]: > 120 µM (not active)
- EC50 [9]: > 120 µM (not active)
- EC50 [10]: > 100 µM (inactive)

Compound: Oc1ccc(-c2csc(Nc3ccccn3)n2)cc1O
- EC50 [11]: 74.1 µM (active)
- EC50 [12]: 17.3 µM (active)
- IC50 (Large T antigen): 51.7 µM (active)
- EC50 [13]: 48.7 µM (active)
- EC50 [14]: 24.9 µM (active)
- EC50 [15]: 47.9 µM (active)

Compound: O=c1cc(CSc2nnnn2-c2ccccc2)nc(Nc2ccc(F)cc2)[nH]1
- IC50 (SUMO-activating enzyme [16]): 11.5 µM (active)
- IC50 (Estrogen receptor [17]): > 50 µM (not active)
- IC50 (SUMO-activating enzyme [18]): 6.47 µM (active)
- EC50 (Estrogen receptor [19]): 12.5 µM (active)

Compound: COc1ccc(S(=O)(=O)N2CCOCC2)cc1NC(=O)c1cc2c(s1)CCCC2
- EC50 [20]: 0.524 µM (active)
- IC50 (Cannabinoid receptor 2 [21]): > 32 µM (inactive)
- EC50 (Cannabinoid receptor 2 [22]): > 32 µM (inactive)
- EC50 [23]: 0.305 µM (active)
- IC50 (Cannabinoid receptor 1): > 32 µM (inactive)

Compound: Cc1ccc(CSc2nnc(-c3ccccn3)n2Cc2ccco2)cc1
- IC50 (Mu-type opioid receptor [24]): > 32 µM (inactive)
- IC50 [25]: > 32 µM (inactive)
- EC50 (Mu-type opioid receptor [26]): > 32 µM (inactive)
- EC50 [27]: 6.21 µM (active)
- EC50 [28]: > 32 µM (inactive)
- IC50 [29]: > 32 µM (inactive)
- EC50 [30]: 5.21 µM (active)

Compound: O=C(N[C@@H]1CCCN(Cc2ccccc2)C1)c1cc(Cl)cc(Cl)c1
- EC50 [31]: 10 µM (active)
